This note sets out measurements from patent EP3575287A1, “INHIBITORS OF N-ACYLPHOSPHATIDYLETHANOLAMINE PHOSPHOLIPASE D (NAPE-PLD)” (Universiteit Leiden, priority 2018, dated 2019).

SMILES strings stand for the structures.

The target of this assay is T1, human NAPE-PLD (Homo sapiens, UniProt Q6IQ20).
T1 construct: Full length human cDNA NAPE-PLD was obtained from Natsuo Ueda; made in house; host or cells: HEK293T cells, transient transfection (pcDNA3.1); membrane fraction used
T1 sequence (Q6IQ20 whole entry): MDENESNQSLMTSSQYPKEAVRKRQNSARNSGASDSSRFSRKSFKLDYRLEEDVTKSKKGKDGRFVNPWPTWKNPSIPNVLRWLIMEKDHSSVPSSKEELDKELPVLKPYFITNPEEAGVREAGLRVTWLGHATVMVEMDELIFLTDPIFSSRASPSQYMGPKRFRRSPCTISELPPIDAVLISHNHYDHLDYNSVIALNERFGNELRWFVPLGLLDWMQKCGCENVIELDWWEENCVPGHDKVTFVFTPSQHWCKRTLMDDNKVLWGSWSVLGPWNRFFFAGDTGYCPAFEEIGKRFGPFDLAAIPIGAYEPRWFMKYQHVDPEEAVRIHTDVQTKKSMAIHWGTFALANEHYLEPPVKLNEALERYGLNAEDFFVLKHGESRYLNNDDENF
Put plainly: In vitro NAPE-PLD activity assay. The class given is biochemical. Particulars: membrane protein fraction of HEK293T cells overexpressing human NAPE-PLD; substrate PED6 1 µM; 30 minutes preincubation at 37 °C. As for the experimental part: Full length human cDNA NAPE-PLD was obtained from Natsuo Ueda^1 and cloned into mammalian expression vector pcDNA3.1, containing a C-terminal Flag-tag and genes for ampicillin and neomycin resistance. All plasmids were grown in XL-10 Z-competent cells and prepped (Maxi Prep, Qiagen). Sequence analysis for the confirmation of the sequences was performed at the Leiden Genome Technology Centre.
HEK293T were cultured at 37 °C and 7% CO2 in DMEM (Sigma Aldrich, D6546) with glutamax, penicillin (100 µg/ml), streptomycin (100 µg/ml) and 10% New Born Calf Serum iron supplemented (Hyclone SH30072.03). Cells were passaged twice a week to appropriate confluence.
24 hours before transfection 10^7 cells are seeded on a 15 cm dish. Two hours before transfection medium is refreshed, low volume. Transfection is performed with PEI in a ratio of 3:1 with human NAPE-PLD or Mock pcDNA3.1 Neo, 20 µg per dish. Medium is refreshed after 24 hours and cells are harvested after 72 hours.
Cell pellets are re-suspended in lysis buffer: 20 mM Hepes, 2 mM DTT, 0.25 M sucrose, 1 mM MgCl2, 2.5 U/ml benzonase and incubated 30 minutes on ice. The cytosolic fraction (supernatant) is separated from the membranes by ultra-centrifugation (32000 rpm for 30 minutes 100,000g). The pellet is resuspended in storage buffer: 20 mM Hepes, 2 mM DTT (membrane fraction). All samples are stored at -80°C. Enzyme concentrations are determined using a Bradford assay.
The NAPE-PLD activity assay is based on a previously reported method with small alterations.^2 The membrane protein fraction from transient overexpression of human NAPE-PLD in HEK293T cells was diluted to 0.4 mg/ml in assay buffer: 50 mM Tris-HCl (pH 7.5), 0.02% Triton X-100, 150 mM NaCl. The substrate PED6 (Invitrogen) 1 mM stock was consecutively diluted in DMSO (10x) and in assay buffer (10x) to make a 10 µM working solution. […] The assay is performed in a dark Greiner 96 wells plate, end volume 100 µl. The compound or DMSO is incubated with membrane protein lysate (final concentration 0.04 mg/ml) for 30 minutes at 37 °C. […] Mock lysate with DMSO is used for background substraction. IC50 curves are generated used Graphpad Prism v6.
As to `CN(CCc1ccccc1)c1nc(Oc2cccnc2)cc(C(=O)NCC2CC2)n1` [Example 1, N-(cyclopropylmethyl)-2-(methyl(phenethyl)amino)-6-(pyridin-3-yloxy)pyrimidine-4-carboxamide], the IC50 (commonly the midpoint of a concentration-inhibition curve) is 5250 nM. `CN(CCc1ccccc1)c1nc(C(=O)NCC2CC2)cc(N2CCC(F)(F)CC2)n1` [Example 2, N-(cyclopropylmethyl)-6-(4,4-difluoropiperidin-1-yl)-2-(methyl(phenethyl)amino)pyrimidine-4-carboxamide] had an IC50 of 8910 nM. In the case of `CN(CCc1ccccc1)c1nc(C(=O)NCC2CC2)cc(N2CCCCC2)n1` [Example 3, N-(cyclopropylmethyl)-2-(methyl(phenethyl)amino)-6-(piperidin-1-yl)pyrimidine-4-carboxamide] it was 646 nM.

`CCNC(=O)c1cc(N2CCOCC2)nc(N(C)CCc2ccccc2)n1` [Example 4, N-ethyl-2-(methyl (phenethyl)amino)-6-morpholinopyrimidine-4-carboxamide]: inhibition was half-maximal at 4570 nM (IC50). Compared with the last molecule, the IC50 is about 7.1-fold higher. In the case of `CN(CCc1ccccc1)c1nc(C(=O)NCC2CC2)cc(N2CCSCC2)n1` [Example 5, N-(cyclopropylmethyl)-2-(methyl(phenethyl)amino)-6-thiomorpholinopyrimidine-4-carboxamide] it was 2630 nM; in that of `CC(C)CNC(=O)c1cc(N2CCOCC2)nc(N(C)CCc2ccccc2)n1` [Example 6, N-isobutyl-2-(methyl(phenethyl)amino)-6-morpholinopyrimidine-4-carboxamide], 7080 nM. In the case of `CN1CCN(c2cc(C(=O)NCC3CC3)nc(N(C)CCc3ccccc3)n2)CC1` [Example 7, N-(cyclopropylmethyl)-2-(methyl(phenethyl)amino)-6-(4-methylpiperazin-1-yl)pyrimidine-4-carboxamide] it was 1580 nM; in that of `C#CCNC(=O)c1cc(N2CCOCC2)nc(N(C)CCc2ccccc2)n1` [Example 8, 2-(methyl(phenethyl)amino)-6-morpholino-N-(prop-2-yn-1-yl)pyrimidine-4-carboxamide], 912 nM. Consider `CCCCNC(=O)c1cc(N2CCOCC2)nc(N(C)CCc2ccccc2)n1` [Example 9, N-butyl-2-(methyl (phenethyl)amino)-6-morpholinopyrimidine-4-carboxamide], for which 6760 nM corresponded to half-maximal inhibition (IC50). Compared with the last molecule, the IC50 is about 7.4-fold higher. In the case of `CN(CCc1ccccc1)c1nc(C(=O)NCC2CC2)cc(N2CCNCC2)n1` [Example 11, N-(cyclopropylmethyl)-2-(methyl(phenethyl)amino)-6-(piperazin-1-yl)pyrimidine-4-carboxamide] it was 5370 nM. The value for `CC(=O)N1CCN(c2cc(C(=O)NCC3CC3)nc(N(C)CCc3ccccc3)n2)CC1` [Example 12, 6-(4-acetylpiperazin-1-yl)-N-(cyclopropylmethyl)-2-(methyl(phenethyl)amino)pyrimidine-4-carboxamide] was 1200 nM.

The molecule `CN(CCc1ccccc1)c1nc(C(=O)NC2CC2)cc(N2CCOCC2)n1` [Example 13, N-cyclopropyl-2-(methyl (phenethyl)amino)-6-morpholinopyrimidine-4-carboxamide] had an IC50 of 3720 nM. The value for `CCCNC(=O)c1cc(N2CCOCC2)nc(N(C)CCc2ccccc2)n1` [Example 14, N-propyl-2-(methyl (phenethyl)amino)-6-morpholino-pyrimidine-4-carboxamide] was 1820 nM; that for `CN(CCc1ccccc1)c1nc(C(=O)NCC2CC2)cc(N2CCN(C(=O)c3ccccc3)CC2)n1` [Example 16, 6-(4-benzoylpiperazin-1-yl)-N-(cyclopropylmethyl)-2-(methyl(phenethyl)amino)pyrimidine-4-carboxamide] was 7760 nM; that for `CN(CCc1ccccc1)c1nc(C(=O)NCC2CC2)cc(N2CCCC2)n1` [Example 17, N-(cyclopropylmethyl)-2-(methyl(phenethyl)amino)-6-(pyrrolidin-1-yl)pyrimidine-4-carboxamide] was 224 nM. `CCN(CC)c1cc(C(=O)NCC2CC2)nc(N(C)CCc2ccccc2)n1` [Example 20, N-(cyclopropylmethyl)-6-(diethylamino)-2-(methyl(phenethyl)amino)pyrimidine-4-carboxamide] had an IC50 of 501 nM. This IC50 lies about 2.2-fold higher than the previous one.

The molecule `CNc1cc(C(=O)NCC2CC2)nc(N(C)CCc2ccccc2)n1` [Example 21, N-(cyclopropylmethyl)-2-(methyl(phenethyl)amino)-6-(methylamino)pyrimidine-4-carboxamide] gave an IC50 of 851 nM. In the case of `CN(CCc1cccs1)c1nc(C(=O)NCC2CC2)cc(N2CCOCC2)n1` [Example 22, N-(cyclopropylmethyl)-2-(methyl(2-(thiophen-2-yl)ethyl)amino)-6-morpholinopyrimidine-4-carboxamide] it was 1070 nM. `CN(CCc1ccccc1)c1nc(C(=O)NCC2CC2)cc(-n2ccnc2)n1` [Example 23, N-(cyclopropylmethyl)-6-(1H-imidazol-1-yl)-2-(methyl(phenethyl)amino)pyrimidine-4-carboxamide] gave an IC50 of 2240 nM.

As to `CN(CCc1ccccc1)c1nc(C(=O)NCC2CC2)cc(-n2cccn2)n1` [Example 24, N-(cyclopropylmethyl)-2-(methyl(phenethyl)amino)-6-(1H-pyrazol-1-yl)pyrimidine-4-carboxamide], inhibition was half-maximal at 1200 nM (IC50). Molecule `CN(CCc1ccccc1)c1nc(C(=O)NCC2CC2)cc(N2CCC2)n1` [Example 25, N-(cyclopropylmethyl)-2-(methyl(phenethyl)amino)-6-(azetidin-1-yl)pyrimidine-4-carboxamide] showed an IC50 of 427 nM.

Take `CN(CCc1ccccc1)c1nc(C(=O)NCC2CC2)cc(N2CC3(COC3)C2)n1` [Example 26, N-(cyclopropylmethyl)-2-(methyl(phenethyl)amino)-6-(2-oxa-6-azaspiro[3.3]heptan-6-yl)pyrimidine-4-carboxamide]: the IC50 was 1660 nM. Against the preceding molecule, the IC50 is about 3.9-fold higher.

As to `CN(CCc1ccccc1)c1cc(C(=O)NCC2CC2)nc(N(C)CCc2ccccc2)n1` [Example 27, N-(cyclopropylmethyl)-2,6-bis(methyl(phenethyl)amino)pyrimidine-4-carboxamide], the IC50 is 155 nM. The value for `CN(Cc1ccccc1)c1cc(C(=O)NCC2CC2)nc(N(C)CCc2ccccc2)n1` [Example 28, N-(cyclopropylmethyl)-2-(methyl(phenethyl)amino)-6-(benzyl(methyl)amino)pyrimidine-4-carboxamide] was 1100 nM; that for `CN(CCc1ccccc1)c1nc(C(=O)NCC2CC2)cc(N2CCC(c3ccccc3)C2)n1` (stereo not drawn) [Example 29, N-(cyclopropylmethyl)-2-(methyl(phenethyl)amino)-6-(3-phenylpyrrolidin-1-yl)pyrimidine-4-carboxamide] was 1410 nM; that for `CN(CCO)c1cc(C(=O)NCC2CC2)nc(N(C)CCc2ccccc2)n1` [Example 30, N-(cyclopropylmethyl)-6-((2-hydroxyethyl)(methyl)amino)-2-(methyl(phenethyl)amino)pyrimidine-4-carboxamide] was 1000 nM.

In turn, `CN(CCc1ccccc1)c1nc(C(=O)NCC2CC2)cc(N2CCC(F)(F)C2)n1` [Example 31, N-(cyclopropylmethyl)-6-(3,3-difluoropyrrolidin-1-yl)-2-(methyl(phenethyl)amino)pyrimidine-4-carboxamide] had an IC50 of 1170 nM.
